{
  "source": "patent US8937091B2",
  "about": "(Japan Science and Technology Agency, priority 2009, dated 2015)",
  "key": {"[1]": {"system": "SOCE (store operated calcium entry) in CHO cells", "test": "Assay of SOCE (store operated calcium entry)-inhibiting action", "format": "cell-based, Chinese hamster", "conditions": "CHO cells, thapsigargin", "method_in_brief": "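CHO cells in calcium-free BSS received compound, then 1 μM thapsigargin 2 min later to deplete stores; after 9 min, 2 mM calcium chloride (final) added. Percent inhibition of the rise in intracellular calcium determined at various compound concentrations.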"}, "[2]": {"system": "IICR (IP3 induced calcium release) in CHO cells", "test": "Assay of IICR (IP3 induced calcium release)-inhibiting action", "format": "cell-based, Chinese hamster", "conditions": "CHO cells, 10 μM ATP", "method_in_brief": "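Inhibition (%) of the intracellular calcium increase triggered by 10 μM ATP, measured in CHO cells in BSS with calcium. Compound given 1 min after the buffer exchange and 2 min before ATP; values reported per compound concentration.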"}, "[3]": {"biological_target": "TGase (Cavia porcellus, UniProt P08587)", "format": "biochemical", "conditions": "level with DMSO control designated as 100"}},
  "note": "Where two headings read alike, the source gives them in different places.",
  "data": [
    {"compound": "O=C(CCNCCSSCCNCCC(=O)c1cccs1)c1cccs1", "note": "[Example 369]", "values": [
      {"measurement": "SOCE level (percentage of inhibition)", "setting": "[1]; test compound 10 μmol", "result": 20, "unit": "%"},
      {"measurement": "SOCE level (percentage of inhibition)", "setting": "[1]; test compound 30 μmol", "result": 40, "unit": "%"},
      {"measurement": "SOCE level (percentage of inhibition)", "setting": "[1]; test compound 100 μmol", "result": 50, "unit": "%"},
      {"measurement": "IICR level (percentage of inhibition)", "setting": "[2]; test compound 10 μmol", "result": 0, "unit": "%"},
      {"measurement": "IICR level (percentage of inhibition)", "setting": "[2]; test compound 30 μmol", "result": 0, "unit": "%"},
      {"measurement": "IICR level (percentage of inhibition)", "setting": "[2]; test compound 100 μmol", "result": 70, "unit": "%"},
      {"measurement": "TG level", "setting": "[3]; test compound 3 μmol", "result": 95.1},
      {"measurement": "TG level", "setting": "[3]; test compound 30 μmol", "result": "−64.9"}
    ]},
    {"compound": "O=C(CCNCCSSCCNCCC(=O)c1ccc2ccccc2c1)c1ccc2ccccc2c1", "note": "[Example 370]", "values": [
      {"measurement": "SOCE level (percentage of inhibition)", "setting": "[1]; test compound 10 μmol", "result": 0, "unit": "%"},
      {"measurement": "SOCE level (percentage of inhibition)", "setting": "[1]; test compound 30 μmol", "result": 0, "unit": "%"},
      {"measurement": "SOCE level (percentage of inhibition)", "setting": "[1]; test compound 100 μmol", "result": 3, "unit": "%"},
      {"measurement": "IICR level (percentage of inhibition)", "setting": "[2]; test compound 10 μmol", "result": 0, "unit": "%"},
      {"measurement": "IICR level (percentage of inhibition)", "setting": "[2]; test compound 30 μmol", "result": 0, "unit": "%"},
      {"measurement": "IICR level (percentage of inhibition)", "setting": "[2]; test compound 100 μmol", "result": 29, "unit": "%"},
      {"measurement": "TG level", "setting": "[3]; test compound 3 μmol", "result": 36},
      {"measurement": "TG level", "setting": "[3]; test compound 30 μmol", "result": 1.6}
    ]},
    {"compound": "O=C(CCNCCSSCCNCCC(=O)c1ccco1)c1ccco1", "note": "[Example 372]", "values": [
      {"measurement": "SOCE level (percentage of inhibition)", "setting": "[1]; test compound 10 μmol", "result": 0, "unit": "%"},
      {"measurement": "SOCE level (percentage of inhibition)", "setting": "[1]; test compound 30 μmol", "result": 0, "unit": "%"},
      {"measurement": "SOCE level (percentage of inhibition)", "setting": "[1]; test compound 100 μmol", "result": 15, "unit": "%"},
      {"measurement": "IICR level (percentage of inhibition)", "setting": "[2]; test compound 10 μmol", "result": 0, "unit": "%"},
      {"measurement": "IICR level (percentage of inhibition)", "setting": "[2]; test compound 30 μmol", "result": 54, "unit": "%"},
      {"measurement": "IICR level (percentage of inhibition)", "setting": "[2]; test compound 100 μmol", "result": 58, "unit": "%"},
      {"measurement": "TG level", "setting": "[3]; test compound 3 μmol", "result": 13},
      {"measurement": "TG level", "setting": "[3]; test compound 30 μmol", "result": "−1.5"}
    ]},
    {"compound": "O=C(CCNCCSSCCNCCC(=O)c1ccsc1)c1ccsc1", "note": "[Example 380]", "values": [
      {"measurement": "SOCE level (percentage of inhibition)", "setting": "[1]; test compound 10 μmol", "result": 4, "unit": "%"},
      {"measurement": "SOCE level (percentage of inhibition)", "setting": "[1]; test compound 30 μmol", "result": 31, "unit": "%"},
      {"measurement": "SOCE level (percentage of inhibition)", "setting": "[1]; test compound 100 μmol", "result": 70, "unit": "%"},
      {"measurement": "IICR level (percentage of inhibition)", "setting": "[2]; test compound 10 μmol", "result": 10, "unit": "%"},
      {"measurement": "IICR level (percentage of inhibition)", "setting": "[2]; test compound 30 μmol", "result": 76, "unit": "%"},
      {"measurement": "IICR level (percentage of inhibition)", "setting": "[2]; test compound 100 μmol", "result": 81, "unit": "%"},
      {"measurement": "TG level", "setting": "[3]; test compound 3 μmol", "result": 25},
      {"measurement": "TG level", "setting": "[3]; test compound 30 μmol", "result": 4.2}
    ]},
    {"compound": "N,N-bis(2-(4-bromobenzoyl)ethyl)cystinemethylester [Example 392]", "values": [
      {"measurement": "SOCE level (percentage of inhibition)", "setting": "[1]; test compound 10 μmol", "result": 20, "unit": "%"},
      {"measurement": "SOCE level (percentage of inhibition)", "setting": "[1]; test compound 30 μmol", "result": 40, "unit": "%"},
      {"measurement": "SOCE level (percentage of inhibition)", "setting": "[1]; test compound 100 μmol", "result": 50, "unit": "%"},
      {"measurement": "IICR level (percentage of inhibition)", "setting": "[2]; test compound 10 μmol", "result": 58, "unit": "%"},
      {"measurement": "IICR level (percentage of inhibition)", "setting": "[2]; test compound 30 μmol", "result": 61, "unit": "%"},
      {"measurement": "IICR level (percentage of inhibition)", "setting": "[2]; test compound 100 μmol", "result": 76, "unit": "%"},
      {"measurement": "TG level", "setting": "[3]; test compound 3 μmol", "result": 25},
      {"measurement": "TG level", "setting": "[3]; test compound 10 μmol", "result": 3.7},
      {"measurement": "TG level", "setting": "[3]; test compound 30 μmol", "result": 2.3}
    ]},
    {"compound": "N,N-bis(2-(4-pyridinoyl)ethyl)cystinemethylester [Example 393]", "values": [
      {"measurement": "SOCE level (percentage of inhibition)", "setting": "[1]; test compound 10 μmol", "result": 20, "unit": "%"},
      {"measurement": "SOCE level (percentage of inhibition)", "setting": "[1]; test compound 30 μmol", "result": 40, "unit": "%"},
      {"measurement": "SOCE level (percentage of inhibition)", "setting": "[1]; test compound 100 μmol", "result": 50, "unit": "%"},
      {"measurement": "IICR level (percentage of inhibition)", "setting": "[2]; test compound 10 μmol", "result": 44, "unit": "%"},
      {"measurement": "IICR level (percentage of inhibition)", "setting": "[2]; test compound 30 μmol", "result": 42, "unit": "%"},
      {"measurement": "IICR level (percentage of inhibition)", "setting": "[2]; test compound 100 μmol", "result": 21, "unit": "%"},
      {"measurement": "TG level", "setting": "[3]; test compound 3 μmol", "result": 54},
      {"measurement": "TG level", "setting": "[3]; test compound 10 μmol", "result": 16},
      {"measurement": "TG level", "setting": "[3]; test compound 30 μmol", "result": 3.5}
    ]},
    {"compound": "N,N-bis(2-(5-bromo-2-thiophenoyl)ethyl)cystinemethylester [Example 386]", "values": [
      {"measurement": "SOCE level (percentage of inhibition)", "setting": "[1]; test compound 10 μmol", "result": 20, "unit": "%"},
      {"measurement": "SOCE level (percentage of inhibition)", "setting": "[1]; test compound 30 μmol", "result": 40, "unit": "%"},
      {"measurement": "SOCE level (percentage of inhibition)", "setting": "[1]; test compound 100 μmol", "result": 50, "unit": "%"},
      {"measurement": "IICR level (percentage of inhibition)", "setting": "[2]; test compound 10 μmol", "result": 44, "unit": "%"},
      {"measurement": "IICR level (percentage of inhibition)", "setting": "[2]; test compound 30 μmol", "result": 72, "unit": "%"},
      {"measurement": "IICR level (percentage of inhibition)", "setting": "[2]; test compound 100 μmol", "result": 77, "unit": "%"},
      {"measurement": "TG level", "setting": "[3]; test compound 3 μmol", "result": 4.6},
      {"measurement": "TG level", "setting": "[3]; test compound 10 μmol", "result": 2.9},
      {"measurement": "TG level", "setting": "[3]; test compound 30 μmol", "result": 14}
    ]},
    {"compound": "N,N-bis(2-naphthoylethyl)cystinemethylester [Example 391]", "values": [
      {"measurement": "SOCE level (percentage of inhibition)", "setting": "[1]; test compound 10 μmol", "result": 20, "unit": "%"},
      {"measurement": "SOCE level (percentage of inhibition)", "setting": "[1]; test compound 30 μmol", "result": 40, "unit": "%"},
      {"measurement": "SOCE level (percentage of inhibition)", "setting": "[1]; test compound 100 μmol", "result": 50, "unit": "%"},
      {"measurement": "IICR level (percentage of inhibition)", "setting": "[2]; test compound 10 μmol", "result": 6, "unit": "%"},
      {"measurement": "IICR level (percentage of inhibition)", "setting": "[2]; test compound 30 μmol", "result": 37, "unit": "%"},
      {"measurement": "IICR level (percentage of inhibition)", "setting": "[2]; test compound 100 μmol", "result": 41, "unit": "%"},
      {"measurement": "TG level", "setting": "[3]; test compound 3 μmol", "result": 33},
      {"measurement": "TG level", "setting": "[3]; test compound 10 μmol", "result": 6.4},
      {"measurement": "TG level", "setting": "[3]; test compound 30 μmol", "result": 29}
    ]},
    {"compound": "N,N-bis(2-thiophenoylethyl)cystinemethylester [Example 389]", "values": [
      {"measurement": "SOCE level (percentage of inhibition)", "setting": "[1]; test compound 10 μmol", "result": 20, "unit": "%"},
      {"measurement": "SOCE level (percentage of inhibition)", "setting": "[1]; test compound 30 μmol", "result": 40, "unit": "%"},
      {"measurement": "SOCE level (percentage of inhibition)", "setting": "[1]; test compound 100 μmol", "result": 50, "unit": "%"},
      {"measurement": "IICR level (percentage of inhibition)", "setting": "[2]; test compound 10 μmol", "result": 22, "unit": "%"},
      {"measurement": "IICR level (percentage of inhibition)", "setting": "[2]; test compound 30 μmol", "result": 45, "unit": "%"},
      {"measurement": "IICR level (percentage of inhibition)", "setting": "[2]; test compound 100 μmol", "result": 54, "unit": "%"},
      {"measurement": "TG level", "setting": "[3]; test compound 3 μmol", "result": 9.7},
      {"measurement": "TG level", "setting": "[3]; test compound 10 μmol", "result": 2.7},
      {"measurement": "TG level", "setting": "[3]; test compound 30 μmol", "result": "−3.8"}
    ]}
  ]
}
